Laboratory results: patent publication US20250121084A1, “ANTI-CLAUDIN-6 CONJUGATES” (priority 2023, published 2025)
Starred links: 1 amine or outer side, 2 acyl side, 3 side chain; linkers in the order of their positions; H or OH if unused. Non-standard residues stand in square brackets, D forms with d. Residues, ends and D or L forms follow the SMILES beside them. *: point of attachment. Exatecan = CC[C@@]1(O)C(=O)OCc2c1cc1n(c2=O)Cc2c-1nc1cc(F)c(C)c3c1c2[C@@H](N*)CC3; Propanoyl(3-maleimido) = O=C1C=CC(=O)N1CCC(=O)*; PABC = O=C(OCc1ccc(N[*:1])cc1)[*:2]

Experiments:
a variety of cell lines = settings: versus SN38; cited from earlier work
topo I/DNA complex = target: T1, topo I/DNA complex (Homo sapiens, UniProt P11387); settings: versus SN38 (the active metabolite of irinotecan); cited from earlier work
T1 sequence (P11387 1-765): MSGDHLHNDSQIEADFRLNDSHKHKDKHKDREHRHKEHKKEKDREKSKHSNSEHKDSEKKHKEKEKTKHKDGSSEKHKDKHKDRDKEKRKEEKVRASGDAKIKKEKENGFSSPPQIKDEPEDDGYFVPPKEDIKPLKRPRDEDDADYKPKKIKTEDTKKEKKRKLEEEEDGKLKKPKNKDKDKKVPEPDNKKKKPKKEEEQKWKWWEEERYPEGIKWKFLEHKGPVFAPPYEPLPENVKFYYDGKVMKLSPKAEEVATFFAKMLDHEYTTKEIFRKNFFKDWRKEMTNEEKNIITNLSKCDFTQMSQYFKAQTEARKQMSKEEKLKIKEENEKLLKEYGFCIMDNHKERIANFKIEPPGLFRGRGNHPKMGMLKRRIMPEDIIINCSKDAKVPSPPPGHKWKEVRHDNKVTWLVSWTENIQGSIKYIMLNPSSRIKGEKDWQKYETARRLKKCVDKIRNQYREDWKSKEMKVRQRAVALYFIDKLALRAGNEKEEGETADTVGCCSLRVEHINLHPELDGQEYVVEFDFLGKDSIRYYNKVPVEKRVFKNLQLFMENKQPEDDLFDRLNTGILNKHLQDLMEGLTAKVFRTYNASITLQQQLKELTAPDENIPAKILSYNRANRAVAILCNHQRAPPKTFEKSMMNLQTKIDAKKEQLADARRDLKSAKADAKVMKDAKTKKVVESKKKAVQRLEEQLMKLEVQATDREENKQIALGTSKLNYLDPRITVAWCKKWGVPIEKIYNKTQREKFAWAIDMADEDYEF

[1] = RP-HPLC retention time correlated with hydrophobicity; format: physicochemical; settings: high Rt = hydrophobic, low Rt = hydrophilic
Experimental: A correlation study was also carried out using Reverse-Phase HPLC (RP-HPLC). The two constructs were injected in RP-HPLC and retention times (Rt) correlated with hydrophobicity—i.e., high Rt was associated to hydrophobic constructs whereas low Rt to hydrophilic ones.

[2] = Aggregation during conjugation to a test antibody (% monomer by SEC); format: physicochemical
Experimental: 2 mg of monoclonal antibody GB01 at 8.87 mg/ml was pH adjusted with 5% 0.5 M Tris, 0.025 M EDTA, pH 8.5 and reduced with 2.3 mol. eq. TCEP and then conjugated with 6 mol. eq. drug linker. After buffer exchange into 30 mM Histidine, 175 mM Sucrose pH 6.0/PBS, the drug to antibody ratio (DAR) was by HIC/LC-MS and % Monomer by size exclusion chromatography (SEC). Percentage monomer values of 95% or greater are assessed as low aggregation.
Aggregation levels were assessed during the conjugation to a test antibody. Conjugation was performed as described above for ADC1.
During conjugation, we are ideally targeting a monomer content or percentage monomer of 95% or above. Low percentage monomer values usually translate to a higher degree of aggregation. One could therefore agree that percentage monomer values of 95% or higher mean very low levels of aggregation or none, whereas values below this threshold often translate to higher levels of aggregation.

CC[C@@]1(O)C(=O)OCc2c1cc1n(c2=O)Cc2c-1nc1cc(F)c(C)c3c1c2[C@@H](N)CC3 [Exatecan]
potency relative to SN38 as a cytotoxin (a variety of cell lines): about 2.5 fold | potency relative to SN38 at stabilizing the topo I/DNA complex (topo I/DNA complex): about 2.5 fold

CC[C@@]1(O)C(=O)OCc2c1cc1n(c2=O)Cc2c-1nc1cc(F)c(C)c3c1c2[C@@H](NC(=O)OCc1ccc(NC(=O)[C@H](C)NC(=O)[C@@H](NC(=O)CNC(=O)CNC(=O)CNC(=O)CNC(=O)CNC(=O)CCN2C(=O)C=CC2=O)C(C)C)cc1)CC3 [Mal-Gly5-VA-PABC-Exatecan] ({Propanoyl(3-maleimido)}-GGGGGVA[PABC]-Exatecan)
Rt [1]: 9.76 min | Aggregation [2]: None | Aggregation (% monomer) ([2]; 95% or greater = low aggregation): 98%
